Two molecules from US20040086498A9, “Cancer therapy” (priority 1999, published 2004) can be followed below.

In one test the test system is EL-4 target cells. The test can be described thus: Measurement of anti-tumour CTL activity of splenocytes from treated mice. The class given is cell-based. The following applies: 21 days following gene transfer; combinations versus B7.1 monotherapy. The method, then:
Measurement of the Generation of Anti-Tumour CTL. Splenocytes were harvested 21, and 42 days following initial gene transfer, and 22 days following a parental tumour challenge. They were incubated at 37° C. with EL-4 target cells in graded E:T ratios in 96-well round-bottom plates. After a 4-hour incubation, 50 μl of supernatant was collected, and lysis was measured using the Cyto Tox 96 Assay Kit (Promega, Madison, Wis., USA). Background controls for non-specific target and effector cell lysis were included. After background subtraction, percentage of cell lysis was calculated using the formula: 100×(experimental-spontaneous effector-target spontaneous target/maximum target-spontaneous target).

The next test deals with heat shock protein 70. The test can be described thus: Immunohistology of hsp70 expression in tumours. The class given is in vivo, mice. The following applies: 7 days following administration. The method, then:
Immunohistology. Tumours were excised on the seventh day following administration of therapeutic agents and controls, immediately frozen in dry ice, stored at −70° C. in isopentane, and sections of 10 μm thickness prepared. Sections were mounted on poly L-lysine-coated slides, and endogenous peroxidases blocked by incubating slides for 30 min in 0.3% H2O2 in methanol. Sections were stained with mouse anti-Hsp70 mAb (SPA-810 antibody; StressGen Biotechnologies Corp., Victoria, Canada) using a mouse-on-mouse immunodetection ABC Elite peroxidase kit (Vector Laboratories, Burlingame, Calif., USA). They were developed with SIGMA FAST DAB (3,3′-diaminobenzidine tetrahydrochloride) with metal enhancer CoCl2 tablets, and counterstained with haematoxylin and eosin. As a control, the primary antibody was substituted with rat IgG (Sigma, USA).

Another test has as its system established EL-4 tumours. The test can be described thus: Adoptive transfer of anti-tumour splenocytes from treated mice. The following applies: 2×10^8 splenocytes from treated mice; recipients with EL-4 tumours up to 0.8 cm. In kind it is in vivo. The method, then: Adoptive Transfer of Anti-Tumour CTL. Adoptive transfer of anti-tumour splenocytes was as described previously (Kanwar et al, 1999). Briefly, splenocytes obtained from mice 21 days following therapy were resuspended in Hank's balanced salt solution containing 1% FCS, and stimulated with 5 μg/ml PHA and 100 U/ml recombinant mouse IL-2 for 4 to 5 days. Animals bearing tumours 0.6 cm in diameter received both intratumoral and i.p. injections of 2×10^8 cultured splenocytes.

The next test concerns EL-4 tumours. The test can be described thus: Treatment of large established EL-4 tumours with CAM gene transfer, DMXAA/FAA or timed combination. The class given is in vivo, C57BL/6 mice. The following applies: large EL-4 tumours 0.6-0.8 cm; systemic (i.p.) optimal dose monotherapy; over a period of 3 weeks. The method, then:
Female C57BL/6 mice, 6-9 weeks old, were obtained from the Animal Resource Unit, School of Medicine and Health Science, University of Auckland, Auckland. The EL-4 thymic lymphoma and mouse Lewis lung carcinoma cells (LLC) (H-2b) were purchased from the American Type Culture Collection (Rockville, Md). These cell lines were cultured in vitro at 37° C. in DMEM medium (Gibco BRL), supplemented with 10% foetal calf serum, 50 U/ml penicillin/streptomycin, 2 mM L-glutamine, 1 mM pyruvate.
Experimental Tumour Model.
Administration FAA and DMXAA Analogues. FAA was gifted from the Department of Health & Human Services, Drug Synthesis & Chemistry laboratory, National Cancer Institute, Bethesda, USA. The sodium salt of DMXAA was synthesized in the Auckland Cancer Society Research Centre, School of Medicine and Health Science, University of Auckland. Solutions of FAA and DMXAA in 5% (w/v) sodium bicarbonate and water, respectively, were prepared fresh for each experiment and protected from light. FAA and DMXAA were injected i.p. at 300 mg/Kg and 25 mg/Kg of body weight in a volume of 0.01 ml/g body weight, respectively.
Gene Transfer of B7.1. […]

A further test deals with EL-4 tumour sections. The test can be described thus: In situ detection of apoptotic and necrotic cells (TUNEL / propidium iodide). In kind it is in vivo, mice. The following applies: tumour sections 7, 14, 21 days after treatment; TUNEL and PI. The method, then:
In Situ Detection of Apoptotic Cells. Tumours were excised and immediately frozen in dry ice, stored at −70° C., and serial sections of 6 μm thickness prepared. TUNEL staining was performed using an In Situ apoptosis detection kit from Boehringer Mannheim, Germany. Briefly, frozen sections were fixed with paraformaldehyde solution (4% in PBS, pH 7.4), and permeabilized with a solution containing 0.1% Triton X-100 and 0.1% sodium citrate. After washing they were incubated with 20 μl TUNEL reagent for 60 min at 37° C., and examined by fluorescence microscopy. Some slides were counterstained with propidium iodide (PI; Sigma, Calif., USA) to distinguish necrotic cells from those undergoing apoptosis. Adjacent sections were counterstained with haematoxylin and eosin and mounted. The total number of apoptotic or necrotic cells were counted. The apototic index (AI) or necrotic index (NI) was calculated as follows: AI or NI=number of apoptotic or necrotic cells×100/total number of nucleated cells.

In the case of `Cc1ccc2c(=O)c3cccc(CC(=O)O)c3oc2c1C` [DMXAA, 5,6-dimethylxanthenone-4-acetic acid], the “anti-tumour CTL activity of splenocytes” value with EL-4 target cells is on record as “very poor effectors”. In addition, the “hsp70 expression in tumours” value with heat shock protein 70 is listed as “consistently found upregulated on tumour cells either surrounding or within the vicinity of blood vessels”. In addition, the “anti-tumour effect of adoptively transferred splenocytes” value in the test on established EL-4 tumours is “no detectable anti-tumour activity”. In the test with EL-4 tumours, the “tumour diameter to which tumours shrank” value is on record as 0.1-0.2 cm. In the test on EL-4 tumour sections, the “apoptotic versus necrotic tumour cells” value is “predominance of necrotic cells”.

Turning to flavone acetic acid [FAA], the “anti-tumour CTL activity of splenocytes” value with EL-4 target cells was “very poor effectors”. The “tumour diameter to which tumours shrank” value in the test on EL-4 tumours was 0.2-0.4 cm.
